Experimental data taken from PubChem BioAssay (NCI).
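All cell lines were grown in 96-well plates and treated with compound for 48 hours. TGI: concentration producing complete growth inhibition.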

What was measured:
Test in all cases: NCI-60 cell line screen, 48 h
786-0 renal = tested on: 786-0 renal
A549 NSCLC = tested on: A549 NSCLC
ACHN renal = tested on: ACHN renal
CCRF-CEM leukemia = tested on: CCRF-CEM leukemia
COLO 205 colon = tested on: COLO 205 colon
DMS 114 small cell lung = tested on: DMS 114 small cell lung
DMS 273 small cell lung = tested on: DMS 273 small cell lung
EKVX NSCLC = tested on: EKVX NSCLC
HCT-116 colon = tested on: HCT-116 colon
HCT-15 colon = tested on: HCT-15 colon
HL-60(TB) leukemia = tested on: HL-60(TB) leukemia
HOP-18 NSCLC = tested on: HOP-18 NSCLC
HOP-62 NSCLC = tested on: HOP-62 NSCLC
HT29 colon = tested on: HT29 colon
K-562 leukemia = tested on: K-562 leukemia
KM12 colon = tested on: KM12 colon
KM20L2 colon = tested on: KM20L2 colon
LOX IMVI melanoma = tested on: LOX IMVI melanoma
LXFL 529 NSCLC = tested on: LXFL 529 NSCLC
M14 melanoma = tested on: M14 melanoma
M19-MEL melanoma = tested on: M19-MEL melanoma
MALME-3M melanoma = tested on: MALME-3M melanoma
MOLT-4 leukemia = tested on: MOLT-4 leukemia
NCI-H226 lung = tested on: NCI-H226 lung
NCI-H23 lung = tested on: NCI-H23 lung
NCI-H460 lung = tested on: NCI-H460 lung
NCI-H522 lung = tested on: NCI-H522 lung
OVCAR-4 ovarian = tested on: OVCAR-4 ovarian
OVCAR-8 ovarian = tested on: OVCAR-8 ovarian
RPMI-8226 leukemia = tested on: RPMI-8226 leukemia
RXF 393 renal = tested on: RXF 393 renal
SF-268 CNS = tested on: SF-268 CNS
SF-295 CNS = tested on: SF-295 CNS
SK-MEL-2 melanoma = tested on: SK-MEL-2 melanoma
SK-MEL-28 melanoma = tested on: SK-MEL-28 melanoma
SK-MEL-5 melanoma = tested on: SK-MEL-5 melanoma
SK-OV-3 ovarian = tested on: SK-OV-3 ovarian
SN12C renal = tested on: SN12C renal
SNB-19 CNS = tested on: SNB-19 CNS
SNB-75 CNS = tested on: SNB-75 CNS
SNB-78 CNS = tested on: SNB-78 CNS
SR leukemia = tested on: SR leukemia
SW-620 colon = tested on: SW-620 colon
TK-10 renal = tested on: TK-10 renal
U251 CNS = tested on: U251 CNS
UACC-257 melanoma = tested on: UACC-257 melanoma
UACC-62 melanoma = tested on: UACC-62 melanoma
UO-31 renal = tested on: UO-31 renal
XF 498 CNS = tested on: XF 498 CNS
A498 renal = tested on: A498 renal
CAKI-1 renal = tested on: CAKI-1 renal
DLD-1 colon = tested on: DLD-1 colon
HCC-2998 colon = tested on: HCC-2998 colon
OVCAR-3 ovarian = tested on: OVCAR-3 ovarian
OVCAR-5 ovarian = tested on: OVCAR-5 ovarian
SF-539 CNS = tested on: SF-539 CNS

Measured: TGI

CC(=O)O[C@]12CCCC1C1(O)C(O)CCCC12 (some centres undefined)
> 100 µM: 786-0 renal | A549 NSCLC | ACHN renal | CCRF-CEM leukemia | COLO 205 colon | DMS 114 small cell lung | DMS 273 small cell lung | EKVX NSCLC | HCT-116 colon | HCT-15 colon | HL-60(TB) leukemia | HOP-18 NSCLC | HOP-62 NSCLC | HT29 colon | K-562 leukemia | KM12 colon | KM20L2 colon | LOX IMVI melanoma | LXFL 529 NSCLC | M14 melanoma | M19-MEL melanoma | MALME-3M melanoma | MOLT-4 leukemia | NCI-H226 lung | NCI-H23 lung | NCI-H460 lung | NCI-H522 lung | OVCAR-4 ovarian | OVCAR-8 ovarian | RPMI-8226 leukemia | RXF 393 renal | SF-268 CNS | SF-295 CNS | SK-MEL-2 melanoma | SK-MEL-28 melanoma | SK-MEL-5 melanoma | SK-OV-3 ovarian | SN12C renal | SNB-19 CNS | SNB-75 CNS | SNB-78 CNS | SR leukemia | SW-620 colon | TK-10 renal | U251 CNS | UACC-257 melanoma | UACC-62 melanoma | UO-31 renal | XF 498 CNS

CC#CC1/C(=C\C(=O)OC)CCCC1O (centres undefined)
> 100 µM: 786-0 renal | A498 renal | A549 NSCLC | ACHN renal | CAKI-1 renal | CCRF-CEM leukemia | DLD-1 colon | DMS 114 small cell lung | DMS 273 small cell lung | EKVX NSCLC | HCC-2998 colon | HCT-116 colon | HCT-15 colon | HL-60(TB) leukemia | HOP-62 NSCLC | HT29 colon | K-562 leukemia | KM12 colon | M14 melanoma | M19-MEL melanoma | MALME-3M melanoma | MOLT-4 leukemia | NCI-H226 lung | NCI-H23 lung | NCI-H460 lung | NCI-H522 lung | OVCAR-3 ovarian | OVCAR-4 ovarian | OVCAR-5 ovarian | OVCAR-8 ovarian | RXF 393 renal | SF-268 CNS | SF-295 CNS | SF-539 CNS | SK-MEL-2 melanoma | SK-MEL-28 melanoma | SK-MEL-5 melanoma | SK-OV-3 ovarian | SN12C renal | SNB-19 CNS | SNB-75 CNS | SNB-78 CNS | SR leukemia | SW-620 colon | TK-10 renal | U251 CNS | UACC-257 melanoma | UACC-62 melanoma | UO-31 renal | XF 498 CNS
